Laboratory results from patent US9131698B2, “Biocidal compositions and methods of use” (Dow Global Technologies LLC, priority 2011, dated 2015).

What was measured:
Type in all cases: cell-based
[1] = tested on: Pseudomonas aeruginosa ATCC 10145 and Staphylococcus aureus ATCC 6538; experiment: Biocidal efficacy against aerobic bacteria, 24 hours, minimum concentration for 99.9% bacterial kill; conditions: 37° C.
Description: (§1) The synergy indexes reported in the following examples are calculated using the following equation: Synergy Index=Ca/CA+Cb/CB
(§2) Ca: Concentration of biocide A required to achieve a certain level of bacterial kill when used in combination with B
(§3) CA: Concentration of biocide A required to achieve a certain level of bacterial kill when used alone
(§4) Cb: Concentration of biocide B required to achieve a certain level of bacterial kill when used in combination with A
(§5) CB: Concentration of biocide B required to achieve a certain level of bacterial kill when used alone.
(§6) A synergy index (SI) of 1 indicates additivity, a synergy index of less than 1 indicates synergy, and a synergy index greater than 1 indicates antagonism.
(§7) Synergy Index is then calculated.

[2] = tested on: Desulfovibrio longus ATCC 51456; experiment: Biocidal efficacy against anaerobic bacteria, 24 hours, minimum concentration for 99.999% bacterial reduction; conditions: 35° C.
Description: as §1, §2, §3, §4, §5, §6
(§8) Inside an anaerobic chamber (Bactron anaerobic chamber), a deoxygenated sterile salt solution (3.1183 g of NaCl, 1.3082 mg of NaHCO3, 47.70 mg of KCl, 72.00 mg of CaCl2, 54.49 mg of MgSO4, 172.28 mg of Na2SO4, 43.92 mg of Na2CO3 in 1 L water) is inoculated with Desulfovibrio longus ATCC 51456 to a final bacterial concentration of 10^6 to 10^7 CFU/mL.

[3] = tested on: Biofilms of Desulfovibrio longus ATCC 51456; experiment: Biofilm removal, Calgary Biofilm Device, crystal violet staining; conditions: 2 hours treatment
Description: Biofilms of Desulfovibrio longus ATCC 51456 are grown in a Calgary Biofilm Device (Innovotech, Alberta, Canada) at 35° C. and under anaerobic conditions for 72 hours with shaking (125 rpm). Modified Baar's Medium (ATCC #1249 Broth) is used as culture medium and the medium is changed after 48 hrs of incubation. […] After biocide treatment, the pegs are rinsed again with deoxygenated sterile 0.85% NaCl solution and then the total biofilm left on each peg is measured according to the following description. The biofilm is fixed with 99% methanol and, after air drying, the pegs are stained with 2% (w/v) crystal violet and washed with tap water. The pegs are then air dried and the crystal violet bound to the biofilm is extracted with 33% glacial acetic acid. The total remaining biofilm is determined by the optical density (OD) of the extracted solution at 580 nm.

[4] = tested on: Desulfovibrio longus ATCC 51456; experiment: Biocidal efficacy against SRB, 2 hour treatment time
Description: as §1, §2, §3, §4, §5, §6, §8

[5] = tested on: Pseudomonas aeruginosa ATCC 10145 and Staphylococcus aureus ATCC 6538; experiment: Biocidal efficacy against aerobic bacteria, 2 hr, minimum concentration for complete bacterial kill; conditions: 37° C.
Description: as §1, §2, §3, §4, §5, §6, §7

[6] = PHMB part of minimum concentration
[7] = THPS part of minimum concentration

tetrakis (hydroxymethyl) phosphonium sulfate [THPS]
Concentration (ppm a.i.) for 99.9% bacterial kill, PHMB [1, 6]: 0.0 ppm a.i. | Concentration (ppm a.i.) for 99.9% bacterial kill, THPS [1, 7]: 19.8 ppm a.i. | Concentration (ppm a.i.) for anaerobic bacteria kill, PHMB ([2]; PHMB part of minimum tested concentration for 99.999% bacterial reduction): 0.0 ppm a.i. | Concentration (ppm a.i.) for anaerobic bacteria kill, THPS ([2]; THPS part of minimum tested concentration for 99.999% bacterial reduction): 8.8 ppm a.i. | Remaining biofilm, OD580 (optical density of biofilm captured crystal violet) ([3]; 50 ppm active): 0.59 | Remaining biofilm, OD580 (optical density of biofilm captured crystal violet) ([3]; 200 ppm active): 1.03 | Concentration (ppm a.i.) for complete SRB kill, PHMB [4, 6]: 0.0 ppm a.i. | Concentration (ppm a.i.) for complete SRB kill, THPS [4, 7]: 22.2 ppm a.i. | Concentration (ppm a.i.) for aerobic bacteria kill, PHMB ([5]; PHMB part of minimum concentration for complete bacterial kill): 0 ppm a.i. | Concentration (ppm a.i.) for aerobic bacteria kill, THPS ([5]; THPS part of minimum concentration for complete bacterial kill): 50 ppm a.i.
